From PMC8523698, “Preclinical characterization of an intravenous coronavirus 3CL protease inhibitor for the potential treatment of COVID19” (Nature Communications, 2021)
“And” between values parts separate entries of the source, which are not always exact repeats. Equal entries are not always repeated. Where two headings read alike, the source gives them in different places.

Columns and labels:
[1] = molecular target: CYP2D6 (Homo sapiens, UniProt P10635); test: Reversible CYP inhibition in human liver microsomes
CYP2D6, sequence (P10635 whole entry): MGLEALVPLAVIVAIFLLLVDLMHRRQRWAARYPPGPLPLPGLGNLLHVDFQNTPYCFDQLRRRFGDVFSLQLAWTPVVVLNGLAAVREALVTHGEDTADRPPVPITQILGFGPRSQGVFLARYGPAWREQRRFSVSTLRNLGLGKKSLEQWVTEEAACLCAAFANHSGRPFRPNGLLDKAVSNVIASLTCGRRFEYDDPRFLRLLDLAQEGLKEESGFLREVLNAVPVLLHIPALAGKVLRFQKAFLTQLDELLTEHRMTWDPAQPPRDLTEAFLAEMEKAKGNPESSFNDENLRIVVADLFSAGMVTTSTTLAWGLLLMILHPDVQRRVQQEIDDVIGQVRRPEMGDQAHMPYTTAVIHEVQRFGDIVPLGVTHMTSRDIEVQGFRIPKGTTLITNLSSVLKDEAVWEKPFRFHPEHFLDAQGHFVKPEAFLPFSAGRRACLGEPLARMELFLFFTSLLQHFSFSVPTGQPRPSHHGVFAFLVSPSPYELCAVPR

[2] = In vitro micronucleus formation; type: cell-based
[3] = molecular target: T1, CYP1A2 (Homo sapiens, UniProt P05177); test: Reversible CYP inhibition in human liver microsomes; conditions: for activity at 0.01 µM / activity at 0.158 µM / activity at 0.398 µM / activity at 1 µM / activity at 15.8 µM / activity at 39.8 µM / activity at 100 µM: human, microsomes, pH 7.4, Percent of Control Activity
T1 sequence (P05177 1-516): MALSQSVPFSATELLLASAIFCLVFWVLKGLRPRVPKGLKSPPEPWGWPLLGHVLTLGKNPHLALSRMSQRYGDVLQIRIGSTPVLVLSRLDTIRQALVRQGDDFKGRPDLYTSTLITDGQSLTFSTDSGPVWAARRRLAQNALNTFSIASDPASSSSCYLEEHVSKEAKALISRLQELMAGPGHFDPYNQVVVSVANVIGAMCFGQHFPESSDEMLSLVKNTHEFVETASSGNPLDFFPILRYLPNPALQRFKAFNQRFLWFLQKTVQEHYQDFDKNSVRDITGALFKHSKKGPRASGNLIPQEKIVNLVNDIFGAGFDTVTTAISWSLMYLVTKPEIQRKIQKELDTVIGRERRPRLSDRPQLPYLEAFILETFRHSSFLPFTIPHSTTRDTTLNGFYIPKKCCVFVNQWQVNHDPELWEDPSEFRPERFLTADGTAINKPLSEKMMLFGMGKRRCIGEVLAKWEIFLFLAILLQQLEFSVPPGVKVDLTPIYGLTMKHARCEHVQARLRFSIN

[4] = test system: Salmonella typhimurium strains and E. coli strain WP2 uvrA; test: Bacterial reverse mutation assay; conditions: with and without metabolic activation
[5] = molecular target: T2, OATP1B3 (Homo sapiens, UniProt Q9NPD5); test: Transporter inhibition using transfected HEK293 cells; conditions: IC50, Rosuvastatin (0.5 µM)
T2 sequence (Q9NPD5 1-702): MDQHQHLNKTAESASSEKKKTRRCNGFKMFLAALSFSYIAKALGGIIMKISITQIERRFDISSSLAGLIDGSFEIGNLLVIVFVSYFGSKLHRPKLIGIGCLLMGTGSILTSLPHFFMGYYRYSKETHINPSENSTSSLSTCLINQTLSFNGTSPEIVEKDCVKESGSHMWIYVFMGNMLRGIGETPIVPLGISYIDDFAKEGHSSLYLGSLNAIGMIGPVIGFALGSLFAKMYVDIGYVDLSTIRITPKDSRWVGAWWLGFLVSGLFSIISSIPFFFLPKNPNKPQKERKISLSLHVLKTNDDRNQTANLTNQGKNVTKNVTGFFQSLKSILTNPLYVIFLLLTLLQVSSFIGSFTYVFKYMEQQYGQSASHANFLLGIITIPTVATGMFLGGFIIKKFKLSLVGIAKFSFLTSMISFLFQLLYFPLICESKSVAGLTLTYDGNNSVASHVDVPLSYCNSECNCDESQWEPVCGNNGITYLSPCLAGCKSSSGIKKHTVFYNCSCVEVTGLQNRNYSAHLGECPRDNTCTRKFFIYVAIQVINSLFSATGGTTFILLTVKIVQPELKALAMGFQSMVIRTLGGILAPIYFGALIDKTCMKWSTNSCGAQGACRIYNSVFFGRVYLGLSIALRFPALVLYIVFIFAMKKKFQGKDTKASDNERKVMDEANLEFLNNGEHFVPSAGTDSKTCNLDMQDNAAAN

[6] = Human blood hemocompatibility (hemolysis, flocculation)

## COc1cccc2[nH]c(C(=O)N[C@@H](CC(C)C)C(=O)N[C@@H](C[C@@H]3CCNC3=O)C(=O)COP(=O)(O)O)cc12 [PF-07304814]
[1]
  IC50: > 100 µM
[1]; CYP 2D6, 0.01 µM, 30-Minute Preincubation, 0.01 µM
  Percent of Control Activity: 97.3% and 99.6%
[1]; CYP 2D6, 0.01 µM, Zero-Minute Preincubation, 0.01 µM
  Percent of Control Activity: 101.0% and 93.7%
[1]; CYP 2D6, 0.158 µM, 30-Minute Preincubation, 0.158 µM
  Percent of Control Activity: 96.0%
[1]; CYP 2D6, 0.158 µM, Zero-Minute Preincubation, 0.158 µM
  Percent of Control Activity: 97.1% and 95.4%
[1]; CYP 2D6, 0.398 µM, 30-Minute Preincubation, 0.398 µM
  Percent of Control Activity: 95.2% and 103.0%
[1]; CYP 2D6, 0.398 µM, Zero-Minute Preincubation, 0.398 µM
  Percent of Control Activity: 98.0% and 97.1%
[1]; CYP 2D6, 1 µM, 30-Minute Preincubation, 1 µM
  Percent of Control Activity: 95.2% and 99.6%
[1]; CYP 2D6, 1 µM, Zero-Minute Preincubation, 1 µM
  Percent of Control Activity: 94.2%
[1]; CYP 2D6, 15.8 µM, 30-Minute Preincubation, 15.8 µM
  Percent of Control Activity: 101.2% and 99.3%
[1]; CYP 2D6, 15.8 µM, Zero-Minute Preincubation, 15.8 µM
  Percent of Control Activity: 97.0%
[1]; CYP 2D6, 39.8 µM, 30-Minute Preincubation, 39.8 µM
  Percent of Control Activity: 99.9% and 102.0%
[1]; CYP 2D6, 39.8 µM, Zero-Minute Preincubation, 39.8 µM
  Percent of Control Activity: 95.5% and 101.2%
[1]; CYP 2D6, 100 µM, 30-Minute Preincubation, 100 µM
  Percent of Control Activity: 93.7% and 95.4%
[1]; CYP 2D6, 100 µM, Zero-Minute Preincubation, 100 µM
  Percent of Control Activity: 68.1% and 92.0% and 98.1%
[1]; Dextromethorphan O-demethylation, T0
  IC50: > 100 µM
[1]; human, microsomes, pH 7.4, Percent of Control Activity, CYP 2D6, 0.01 µM, 30-Minute Preincubation
  activity at 0.01 µM: 101%
[1]; human, microsomes, pH 7.4, Percent of Control Activity, CYP 2D6, 0.01 µM, Zero-Minute Preincubation
  activity at 0.01 µM: 99.1%
[1]; human, microsomes, pH 7.4, Percent of Control Activity, CYP 2D6, 0.158 µM, 30-Minute Preincubation
  activity at 0.158 µM: 103%
[1]; human, microsomes, pH 7.4, Percent of Control Activity, CYP 2D6, 0.158 µM, Zero-Minute Preincubation
  activity at 0.158 µM: 102%
[1]; human, microsomes, pH 7.4, Percent of Control Activity, CYP 2D6, 0.398 µM, 30-Minute Preincubation
  activity at 0.398 µM: 103%
[1]; human, microsomes, pH 7.4, Percent of Control Activity, CYP 2D6, 0.398 µM, Zero-Minute Preincubation
  activity at 0.398 µM: 101%
[1]; human, microsomes, pH 7.4, Percent of Control Activity, CYP 2D6, 1 µM, 30-Minute Preincubation
  activity at 1 µM: 104%
[1]; human, microsomes, pH 7.4, Percent of Control Activity, CYP 2D6, 1 µM, Zero-Minute Preincubation
  activity at 1 µM: 98.7%
[1]; human, microsomes, pH 7.4, Percent of Control Activity, CYP 2D6, 15.8 µM, 30-Minute Preincubation
  activity at 15.8 µM: 102%
[1]; human, microsomes, pH 7.4, Percent of Control Activity, CYP 2D6, 15.8 µM, Zero-Minute Preincubation
  activity at 15.8 µM: 106%
[1]; human, microsomes, pH 7.4, Percent of Control Activity, CYP 2D6, 39.8 µM, 30-Minute Preincubation
  activity at 39.8 µM: 102%
[1]; human, microsomes, pH 7.4, Percent of Control Activity, CYP 2D6, 39.8 µM, Zero-Minute Preincubation
  activity at 39.8 µM: 102%
[1]; human, microsomes, pH 7.4, Percent of Control Activity, CYP 2D6, 100 µM, 30-Minute Preincubation
  activity at 100 µM: 102%
[2]
  micronuclei formation: did not induce micronuclei formation
[3]
  IC50: > 100 µM
[3]; CYP 1A2, 0.01 µM, 30-Minute Preincubation, 0.01 µM
  Percent of Control Activity: 103.6% and 101.2%
[3]; CYP 1A2, 0.01 µM, Zero-Minute Preincubation, 0.01 µM
  Percent of Control Activity: 97.5%
[3]; CYP 1A2, 0.158 µM, 30-Minute Preincubation, 0.158 µM
  Percent of Control Activity: 95.4% and 101.9%
[3]; CYP 1A2, 0.158 µM, Zero-Minute Preincubation, 0.158 µM
  Percent of Control Activity: 97.0% and 100.9%
[3]; CYP 1A2, 0.398 µM, 30-Minute Preincubation, 0.398 µM
  Percent of Control Activity: 101.4% and 101.2%
[3]; CYP 1A2, 0.398 µM, Zero-Minute Preincubation, 0.398 µM
  Percent of Control Activity: 96.0% and 97.7%
[3]; CYP 1A2, 1 µM, 30-Minute Preincubation, 1 µM
  Percent of Control Activity: 102.8% and 101.6%
[3]; CYP 1A2, 1 µM, Zero-Minute Preincubation, 1 µM
  Percent of Control Activity: 94.7% and 96.1%
[3]; CYP 1A2, 15.8 µM, 30-Minute Preincubation, 15.8 µM
  Percent of Control Activity: 103.2%
[3]; CYP 1A2, 39.8 µM, 30-Minute Preincubation, 39.8 µM
  Percent of Control Activity: 101.7% and 102.7%
[3]; CYP 1A2, 39.8 µM, Zero-Minute Preincubation, 39.8 µM
  Percent of Control Activity: 98.4% and 99.6%
[3]; CYP 1A2, 100 µM, 30-Minute Preincubation, 100 µM
  Percent of Control Activity: 104.3% and 102.5%
[3]; CYP 1A2, 100 µM, Zero-Minute Preincubation, 100 µM
  Percent of Control Activity: 94.4% and 97.1%
[3]; Phenacetin O-dealkylation, 30-minute preincubation (T30)
  IC50: > 100 µM
[3]; CYP 1A2, 0.01 µM, 30-Minute Preincubation
  activity at 0.01 µM: 96.7%
[3]; CYP 1A2, 0.01 µM, Zero-Minute Preincubation
  activity at 0.01 µM: 100%
[3]; CYP 1A2, 0.158 µM, 30-Minute Preincubation
  activity at 0.158 µM: 102%
[3]; CYP 1A2, 0.158 µM, Zero-Minute Preincubation
  activity at 0.158 µM: 96.4%
[3]; CYP 1A2, 0.398 µM, 30-Minute Preincubation
  activity at 0.398 µM: 102%
[3]; CYP 1A2, 0.398 µM, Zero-Minute Preincubation
  activity at 0.398 µM: 98.5%
[3]; CYP 1A2, 1 µM, 30-Minute Preincubation
  activity at 1 µM: 100%
[3]; CYP 1A2, 1 µM, Zero-Minute Preincubation
  activity at 1 µM: 99.4%
[3]; CYP 1A2, 15.8 µM, 30-Minute Preincubation
  activity at 15.8 µM: 102%
[3]; CYP 1A2, 15.8 µM, Zero-Minute Preincubation
  activity at 15.8 µM: 100%
[3]; CYP 1A2, 39.8 µM, 30-Minute Preincubation
  activity at 39.8 µM: 102%
[3]; CYP 1A2, 39.8 µM, Zero-Minute Preincubation
  activity at 39.8 µM: 98.5%
[3]; CYP 1A2, 100 µM, 30-Minute Preincubation
  activity at 100 µM: 103%
[3]; CYP 1A2, 100 µM, Zero-Minute Preincubation
  activity at 100 µM: 97.8%
[4]
  bacterial reverse mutation assay result: negative
[5]
  IC50: 202 µM and > 130 µM
[6]
  hemolysis or flocculation/turbidity parameters: no effect on hemolysis or flocculation/turbidity parameters
